Read-outs that look alike come from different tables or passages of the source.
How the values were obtained:
[1] = RSV human challenge study: plasma pharmacokinetics; format: in vivo; settings: for half-life / Tmax / concentration at 12 h / Cmax / AUC(0-t): human; for concentration at 12 h: 12 hours post-dose, read-out: Mean Cmin (SD); for Cmax: read-out: Mean Cmax (SD); for AUC(0-t): read-out: Geometric mean (CV) AUC0–12h
Description: Twice-daily collection of nasal wash samples allowed measurement of viral load via RT-qPCR and quantitative culture. […] Subjects reported the occurrence and severity of symptoms three times daily using a 10-item subject symptom diary card as previously reported ([12]) (see Supplemental Methods). Throughout the quarantine period, used tissues were collected and weighed daily, and total nasal mucus weight was recorded. PK assessments were based on venous blood samples. Safety assessments included measurement of vital signs, standard 12-lead ECG recordings, spirometry, a complete physical examination, and a respiratory-directed physical examination. AEs were monitored daily, coded according to the Medical Dictionary for Regulatory Activities Version 20.0, and graded according to the National Cancer Institute Common Terminology Criteria for Adverse Events Version 4.0 (see Supplemental Methods for further details).
The safety analysis set comprised all subjects who received challenge virus; the PK analysis set comprised all subjects who received the challenge virus and provided at least one postdose PK result.
PK parameters were derived by noncompartmental analysis using Phoenix WinNonlin version 6.4.1. Statistical analyses were performed using SAS software version 9.4 or later. […]
Outcomes. Safety outcomes included the occurrence of AEs. PK outcomes included the maximum plasma concentration, the minimum plasma concentration, the time to maximum plasma concentration, and the area under the plasma concentration-time curve with a dosing interval, calculated by the linear trapezoidal rule.

RSV-A Memphis-37b = experiment: RSV human challenge study: disease severity (total symptom score, nasal mucus weight); format: in vivo
Description: Subjects were screened outside the RSV season for eligibility, including measurement of RSV-A Memphis-37b-specific neutralizing antibody titer, ≤90 days before virus challenge. Eligible subjects were admitted to the quarantine unit on day −2 or day −1 and were inoculated intranasally on day 0 with the challenge virus, RSV-A Memphis-37b (4 log10 PFU/ml, given as one 0.4-ml installation per naris), as previously described ([26]). Nasal wash sampling every 12 h for confirmation of RSV infection by qualitative integrated cycler PCR ([12], [19]) began on the morning of day 2. Treatment began 12 h (±1 h) after collection of a nasal wash sample confirming RSV infection or on the evening of day 5 if RSV infection remained unconfirmed by the morning of day 5.
The study comprised two consecutive cohorts. […] Subjects were discharged on day 12 if nasopharyngeal swab samples tested negative by RSV rapid antigen assay (QuickVue RSV test; Quidel, San Diego, CA, USA). If such tests were positive or if a subject remained symptomatic, quarantine was extended to allow further observation. All subjects were evaluated on day 28 (±3 days).
Twice-daily collection of nasal wash samples allowed measurement of viral load via RT-qPCR and quantitative culture. RT-qPCR results were reported as PFUe/ml when the standard curve included in each assay contained a known infectious amount (PFU) of RSV, as described previously ([30]). Subjects reported the occurrence and severity of symptoms three times daily using a 10-item subject symptom diary card as previously reported ([12]) (see Supplemental Methods). Throughout the quarantine period, used tissues were collected and weighed daily, and total nasal mucus weight was recorded. PK assessments were based on venous blood samples. Safety assessments included measurement of vital signs, standard 12-lead ECG recordings, spirometry, a complete physical examination, and a respiratory-directed physical examination. AEs were monitored daily, coded according to the Medical Dictionary for Regulatory Activities Version 20.0, and graded according to the National Cancer Institute Common Terminology Criteria for Adverse Events Version 4.0 (see Supplemental Methods for further details).
The primary efficacy endpoint was AUC for RSV viral load, as measured by RT-qPCR, in nasal wash samples taken twice daily from just before the first dose until discharge (day 12). Viral load data were provided as log10 PFUe/ml; AUC (log10 PFUe/ml · h) was calculated using the trapezoid rule. Secondary efficacy endpoints related to viral load were AUC of RSV viral load, as assessed by quantitative culture, and the following measures, which were each assessed using both RT-qPCR and quantitative culture: peak viral load, time to peak viral load, and time to <1 log10 (for RT-qPCR) or undetectable (for quantitative culture) viral load (considered to occur at the first confirmed undetectable assessment after which no further virus was detected). Secondary efficacy endpoints related to clinical symptoms included AUC total symptom score; peak total symptom score; time to peak total symptom score; and the total weight of nasal mucus produced. Other secondary outcomes were safety, PK, and sequence detection of viral variants (see Supplemental Methods).
All statistical analyses were performed using two-sided testing. Student’s t tests were performed for normally distributed data with a constant variance; otherwise, the Satterthwaite t test or nonparametric tests were used. For the mucus weight analysis, the least-squares mean was calculated from a mixed model with repeated measures, adjusted for baseline mucus weight and treatment group as covariates and subject as a random effect.

For `NCc1ccc2c(c1)nc(CN1C(=O)C3(CC3)c3ccc(F)cc31)n2CCCC(F)(F)F` [RV521], the “Time to steady-state plasma levels after the first dose” value ([1]; 200 mg and 350 mg) was at most 24 h, the “Subjects achieving target trough levels (3× protein-adjusted in vitro EC90)” value ([1]; 200 mg, after the first dose) was 50% and the “Subjects achieving target trough levels (3× protein-adjusted in vitro EC90)” value ([1]; 200 mg, after the second dose) was 73%. The “Subjects with trough levels in excess of the target (3× protein-adjusted in vitro EC90)” value ([1]; 350 mg, after the first dose) was “all subjects”, the “Increase of systemic exposure with dose” value ([1]; dose 1 and dose 10, 200 mg vs 350 mg) was “greater than dose-proportional” and the half-life ([1]; in vivo, 200 mg and 350 mg, read-out: Elimination half-life (converted)) was about 6 h. For the same molecule, the Tmax ([1]; plasma, oral, 200 mg and 350 mg, postdose, read-out: Median time to maximum plasma concentration) was 5 to 6 h, the concentration at 12 h ([1]; plasma, oral, 200 mg, dose 1) was 22.6 ng/mL and the Cmax ([1]; plasma, oral, 200 mg, dose 1, plasma) was 55.3 ng/mL. For the same molecule, the AUC(0-t) ([1]; plasma, oral, 200 mg, dose 1) was 255 ng·h/mL, the Tmax ([1]; plasma, oral, 200 mg, dose 1, read-out: Median Tmax) was 5.04 h and the Cmax ([1]; plasma, oral, 200 mg, dose 10 (twice daily), plasma) was 94.9 ng/mL. For the same molecule, the concentration at 12 h ([1]; plasma, oral, 200 mg, dose 10) was 39.4 ng/mL, the AUC(0-t) ([1]; plasma, oral, 200 mg, dose 10) was 642 ng·h/mL and the Tmax ([1]; plasma, oral, 200 mg, dose 10, read-out: Median Tmax) was 5.06 h. The concentration at 12 h ([1]; plasma, oral, 350 mg, dose 1) was 80 ng/mL, the Cmax ([1]; plasma, oral, 350 mg, dose 1, plasma) was 169 ng/mL and the AUC(0-t) ([1]; plasma, oral, 350 mg, dose 1) was 953 ng·h/mL. The Tmax ([1]; plasma, oral, 350 mg, dose 1, read-out: Median Tmax) was 6 h, the Cmax ([1]; plasma, oral, 350 mg, dose 10 (twice daily), plasma) was 294 ng/mL and the concentration at 12 h ([1]; plasma, oral, 350 mg, dose 10) was 151 ng/mL. It also gave an AUC(0-t) ([1]; plasma, oral, 350 mg, dose 10) of 1900 ng·h/mL, a Tmax ([1]; plasma, oral, 350 mg, dose 10, read-out: Median Tmax) of 5.05 h and a half-life ([1]; plasma, oral, 200 mg and 350 mg, read-out: Terminal half-life) of 8.54 to 9.35 h. For the same molecule, the “AUC of total symptom score, mean (SE)” value (RSV-A Memphis-37b; 200 mg, ITT-A) was 117.9 (35.26) score x hours, the “AUC of total symptom score, reduction in mean vs placebo” value (RSV-A Memphis-37b; 200 mg, ITT-A) was 73.06% and the “Daily nasal mucus weight, LS mean” value (RSV-A Memphis-37b; 200 mg, ITT-A) was 0.32 g. For the same molecule, the “Peak total symptom score, mean (SE)” value (RSV-A Memphis-37b; 200 mg, ITT-A) was 2.5 (0.49), the “Time to peak total symptom score, mean (SE)” value (RSV-A Memphis-37b; 200 mg, ITT-A) was 1.82 (0.67) days and the “Time to resolution from peak total symptom score, mean (SE)” value (RSV-A Memphis-37b; 200 mg, ITT-A) was 2.73 (0.39) days. For the same molecule, the “AUC of total symptom score, mean (SE)” value (RSV-A Memphis-37b; 200 mg, ITT-A, fixed time period of 6.5 days) was 117.41 (35.26) score x hours, the “AUC total symptom score, mean (SE)” value (RSV-A Memphis-37b; 200 mg, ITT-I) was 111.35 (33.88) score × hours and the “Daily nasal mucus weight, LS mean” value (RSV-A Memphis-37b; 200 mg, ITT-I) was 0.33 g. The “Time to peak total symptom score, mean (SE)” value (RSV-A Memphis-37b; 200 mg, ITT-I) was 2.08 (0.68) days, the “AUC of total symptom score, mean (SE)” value (RSV-A Memphis-37b; 200 mg, ITT-I, fixed time period of 6.5 days) was 111.35 (33.88) score x hours and the “AUC of total symptom score, mean (SE)” value (RSV-A Memphis-37b; 350 mg, ITT-A) was 92.98 (26.81) score x hours. The “AUC of total symptom score, reduction in mean vs placebo” value (RSV-A Memphis-37b; 350 mg, ITT-A) was 78.75%, the “Daily nasal mucus weight, LS mean” value (RSV-A Memphis-37b; 350 mg, ITT-A) was 0.26 g and the “Peak total symptom score, mean (SE)” value (RSV-A Memphis-37b; 350 mg, ITT-A) was 2.1 (0.49). The “Time to peak total symptom score, mean (SE)” value (RSV-A Memphis-37b; 350 mg, ITT-A) was 1.26 (0.55) days, the “Time to resolution from peak total symptom score, mean (SE)” value (RSV-A Memphis-37b; 350 mg, ITT-A) was 2.44 (0.43) days and the “AUC of total symptom score, mean (SE)” value (RSV-A Memphis-37b; 350 mg, ITT-A, fixed time period of 6.5 days) was 92.98 (26.81) score x hours. The “AUC total symptom score, mean (SE)” value (RSV-A Memphis-37b; 350 mg, ITT-I) was 82.41 (24.45) score × hours, the “Daily nasal mucus weight, LS mean” value (RSV-A Memphis-37b; 350 mg, ITT-I) was 0.27 g and the “Time to peak total symptom score, mean (SE)” value (RSV-A Memphis-37b; 350 mg, ITT-I) was 1.56 (0.57) days. For the same molecule, the “AUC of total symptom score, mean (SE)” value (RSV-A Memphis-37b; 350 mg, ITT-I, fixed time period of 6.5 days) was 82.41 (24.45) score x hours.
